Experiments:
Rattus norvegicus [1] = test: Effect on phosphate level in urine in Sprague-Dawley rat at 0.03 mg/kg administered via oral gavage measured after 16 hrs by gravimetric analysis relative to vehicle-treated control; assay type: functional
Rattus norvegicus [2] = test: Effect on sodium level in urine in Sprague-Dawley rat at 2 mg/kg administered via oral gavage measured after 16 hrs by gravimetric analysis relative to vehicle-treated control; assay type: functional
Rattus norvegicus [3] = test: Effect on phosphate level in urine in Sprague-Dawley rat at 2 mg/kg administered via oral gavage measured after 16 hrs by gravimetric analysis relative to vehicle-treated control; assay type: functional
Rattus norvegicus [4] = test: Effect on sodium level in urine in Sprague-Dawley rat at 1 mg/kg administered via oral gavage measured after 16 hrs by gravimetric analysis relative to vehicle-treated control; assay type: functional
[5] = Toxicity in Sprague-Dawley rat model of uremia-associated vascular calcification assessed as change in body weight in presence of calcitriol; details: in vivo

With `CN1Cc2c(Cl)cc(Cl)cc2[C@H](c2cccc(S(=O)(=O)NCCOCCOCCNC(=O)NCCCCNC(=O)NCCOCCOCCNS(=O)(=O)c3cccc([C@@H]4CN(C)Cc5c(Cl)cc(Cl)cc54)c3)c2)C1` [TENAPANOR] the Activity (Rattus norvegicus [1]) was 80%.

`CN1Cc2c(Cl)cc(Cl)cc2[C@H](c2cccc(S(=O)(=O)NCCOCCOCCNC(=O)CCC(CCC(=O)NCCOCCOCCNS(=O)(=O)c3cccc([C@@H]4CN(C)Cc5c(Cl)cc(Cl)cc54)c3)(CCC(=O)NCCOCCOCCNS(=O)(=O)c3cccc([C@@H]4CN(C)Cc5c(Cl)cc(Cl)cc54)c3)NC(=O)NCP(=O)(O)O)c2)C1` gave an Activity (Rattus norvegicus [2]) of 130% and an Activity (Rattus norvegicus [3]) of 50%.

For `CN1Cc2c(Cl)cc(Cl)cc2[C@H](c2cccc(S(=O)(=O)NCCOCCOCCNC(=O)NCCCCNC(=O)NCCOCCOCCNS(=O)(=O)c3cccc([C@@H]4CN(C)Cc5c(Cl)cc(Cl)cc54)c3)c2)C1.Cl.Cl` [TENAPANOR HYDROCHLORIDE], the Activity (Rattus norvegicus [4]) was 11% and the Activity [5] was “Non-Toxic”.

Reference: ChEMBL document CHEMBL3880442, “NHE3-binding compounds and methods for inhibiting phosphate transport” (2014)
